# Data published in patent publication US12370192B2, “Azole-fused pyridazin-3(2H)-one derivatives” (TAKEDA PHARMACEUTICAL COMPANY LIMITED, priority 2019, dated 2025).
# Biological target: T1, human GPR139 receptor (Homo sapiens, UniProt Q6DWJ6)
# T1 construct: expressed in transfected cells; host or cells: T-REx-CHO (Thermo Fisher Scientific), doxycycline-induced
# T1 sequence (Q6DWJ6 1-353): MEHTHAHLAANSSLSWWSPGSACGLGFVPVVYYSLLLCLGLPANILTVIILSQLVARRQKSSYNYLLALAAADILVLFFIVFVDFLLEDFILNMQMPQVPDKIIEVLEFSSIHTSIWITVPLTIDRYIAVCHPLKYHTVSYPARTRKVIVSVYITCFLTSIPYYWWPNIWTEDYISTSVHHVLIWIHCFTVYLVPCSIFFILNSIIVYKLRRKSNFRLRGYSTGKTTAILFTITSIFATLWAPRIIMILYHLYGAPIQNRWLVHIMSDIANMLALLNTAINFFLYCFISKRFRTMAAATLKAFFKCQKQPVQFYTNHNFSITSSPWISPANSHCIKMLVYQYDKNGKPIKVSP
# Experiment: Measurement of GPR139 Activation Via Calcium Signaling (FLIPR, T-REx-CHO cells)
# Type: cell-based
# Settings: T-REx-CHO cells stably expressing human GPR139, 11-point dose response, 10 μM maximum concentration, read-out: GPR139 Potency (pEC50) (converted)
# Method: Measurement of GPR139 Activation Via Calcium Signaling
# This cell-based assay measures the ability of compounds to activate GPR139 in stably transfected T-REx™-CHO cells. T-REx™-CHO cells (Thermo Fisher Scientific®) are stably expressed with human GPR139 receptor, whose expression is controlled by a tetracycline-inducible element. The cells are cultured in medium containing F-12K nutrient mixture-Kaighn's modification, TripleLE™ Express (1×)-phenol red, Dulbecco's phosphate-buffered saline (1×), 10% tetracycline-free FBS, Blasticidin S HCl (10 μg/mL) and Hygromycin B (200 μg/mL). The cells are introduced into the wells of a 384-well black clear bottom plate (Costar®) at 10,000 cells/well. GPR139 receptor expression is induced with 2 μg/mL doxycycline (Sigma D9891). The plate is allowed to stand at room temperature for 10-30 minutes and then incubated at 37° C. and 5% CO2 for 17 hours prior to assay.
# Culture media is removed from cells and 45 μL of 1× calcium dye (2.5 mM) is added to each well and incubated at 37° C. and 5% CO2 for 40 minutes. The plate is removed from the incubator and allowed to stand at RT for 20 minutes without a plate cover prior to measurement of calcium signaling. The calcium dye is prepared by adding 10 mL of assay buffer (Hank's Balanced Salt Solution (1×), 1 mM HEPES at pH 7.4) to one vial of calcium dye (FLIPR® Calcium 5 Assay Kit; Molecular Devices) at room temperature, vortexing the mixture until homogenous, and transferring the dye to a 250 mL flask using 10 mL of assay, buffer to rinse the vial. The dye is subsequently transferred to a conical flask, which is filled to the 200 mL mark with assay buffer, and 1 mL of […] probenecid solution (142.68 mg/mL in 1M NaOH aq) is added.
# Example compounds suspended in DMSO are received from compound management in microtiter plates (0.25 μL/well) and are diluted in assay buffer (25 μL). Following incubation of the cell plate, the Example compounds are added to the cells (11-point dose response, 10 μM maximum concentration) using a FLIPR® Tetra system (Molecular Devices) and fluorescence is measured continuously for 1 minute. EC50 curves are generated with a four-parameter logistic equation using GraphPad Prism® 6, and activation of GPR139 for each example compound is reported as pEC50.
row,Structure (SMILES),EC50
1,"Cc1nn(CC(=O)N[C@@H](C)c2ccc(OC(F)(F)F)cc2)c(=O)c2cnn(C(C)C)c12 [Example 76, (S)-2-(1-isopropyl-7-methyl-4-oxo-1,4-dihydro-5H-pyrazolo[3,4-d]pyridazin-5-yl)-N-(1-(4-(trifluoromethoxy)phenyl)ethyl)acetamide]",1.02 µM
2,"Cc1ccc([C@H](C)NC(=O)Cn2nc(C)c3c(cnn3C(C)C)c2=O)c(F)c1 [Example 83, (S)—N-(1-(2-fluoro-4-methylphenyl)ethyl)-2-(1-isopropyl-7-methyl-4-oxo-1,4-dihydro-5H-pyrazolo[3,4-d]pyridazin-5-yl)acetamide]",0.0933 µM
3,"COc1ccc([C@H](C)NC(=O)Cn2nc(C)c3cnn(C(C)(C)C)c3c2=O)cc1 [Example 9, (S)-2-(1-(tert-butyl)-4-methyl-7-oxo-1,7-dihydro-6H-pyrazolo[3,4-d]pyridazin-6-yl)-N-(1-(4-methoxyphenyl)ethyl)acetamide]",0.0955 µM
4,"Cc1ccc([C@H](C)NC(=O)Cn2ncc3c(c(C)nn3C(C)C)c2=O)cc1 [Example 46, (S)-2-(1-isopropyl-3-methyl-4-oxo-1,4-dihydro-5H-pyrazolo[3,4-d]pyridazin-5-yl)-N-(1-(p-tolyl)ethyl)acetamide]",0.0776 µM
5,"Cc1ccc([C@H](C)NC(=O)Cn2nc(C)c3c(cnn3C(C)C)c2=O)cc1 [Example 77, (S)-2-(1-isopropyl-7-methyl-4-oxo-1,4-dihydro-5H-pyrazolo[3,4-d]pyridazin-5-yl)-N-(1-(p-tolyl)ethyl)acetamide]",0.0912 µM
6,"Cc1nn(CC(=O)N[C@@H](C)c2ccc(OC(F)(F)F)cc2)c(=O)c2cnn(C3CC3)c12 [Example 79, (S)-2-(1-cyclopropyl-7-methyl-4-oxo-1,4-dihydro-5/1-pyrazolo[3,4-d]pyridazin-5-yl)-N-(1-(4-(trifluoromethoxy)phenyl)ethyl)acetamide]",0.257 µM
7,"Cc1nn(CC(=O)N[C@@H](C)c2ccc(C(F)(F)F)cc2)c(=O)c2cnn(C3CC3)c12 [Example 78, (S)-2-(1-cyclopropyl-7-methyl-4-oxo-1,4-dihydro-5H-pyrazolo[3,4-d]pyridazin-5-yl)-N-(1-(4-(trifluoromethyl)phenyl)ethyl)acetamide]",0.0794 µM
8,"Cn1nc(C2CC2)c2c(=O)n(CC(=O)N3CCCC3c3ccc(Cl)cc3)ncc21 (stereo not drawn) [Example 84, 5-(2-(2-(4-chlorophenyl)pyrrolidin-1-yl)-2-oxoethyl)-3-cyclopropyl-1-methyl-1,5-dihydro-4H-pyrazolo[3,4-d]pyridazin-4-one]",0.407 µM

# The remaining lines, values ahead:
row,EC50,Structure (SMILES)
1,0.117 µM,"Cc1ccc([C@H](C)NC(=O)Cn2ncc3c(c(C4CC4)nn3C(C)C)c2=O)c(F)c1 [Example 95, (S)-2-(3-cyclopropyl-1-isopropyl-4-oxo-1,4-dihydro-5H-pyrazolo[3,4-d]pyridazin-5-yl)-N-(1-(2-fluoro-4-methylphenyl)ethyl)acetamide]"
2,0.0589 µM,"Cc1ccc([C@H](C)NC(=O)Cn2ncc3c(cnn3C3CC3)c2=O)c(F)c1 [Example 90, (S)-2-(1-cyclopropyl-4-oxo-1,4-dihydro-5H-pyrazolo[3,4-d]pyridazin-5-yl)-N-(1-(2-fluoro-4-methylphenyl)ethyl)acetamide]"
3,0.126 µM,"CC(C)n1ncc2c(=O)n(CC(=O)N[C@@H](C)c3ccc(OC(F)(F)F)cc3)ncc21 [Example 87, (S)-2-(1-isopropyl-4-oxo-1,4-dihydro-5H-pyrazolo[3,4-d]pyridazin-5-yl)-N-(1-(4-(trifluoromethoxy)phenyl)ethyl)acetamide]"
4,0.275 µM,"CC(C)n1nc(C2CC2)c2c(=O)n(CC(=O)N[C@@H](C)c3ccc(C(F)(F)F)cc3)ncc21 [Example 98, (S)-2-(3-cyclopropyl-1-isopropyl-4-oxo-1,4-dihydro-5H-pyrazolo[3,4-d]pyridazin-5-yl)-N-(1-(4-(trifluoromethyl)phenyl)ethyl)acetamide]"
5,0.282 µM,"Cc1nn(C2CC2)c2cnn(CC(=O)N[C@@H](C)c3ccc(OC(F)(F)F)cc3)c(=O)c12 [Example 109, (S)-2-(1-cyclopropyl-3-methyl-4-oxo-1,4-dihydro-5H-pyrazolo[3,4-d]pyridazin-5-yl)-N-(1-(4-(trifluoromethoxy)phenyl)ethyl)acetamide]"
6,0.0589 µM,"Cc1ccc([C@H](C)NC(=O)Cn2ncc3c(cnn3C3CC3)c2=O)cc1 [Example 91, (S)-2-(1-cyclopropyl-4-oxo-1,4-dihydro-5H-pyrazolo[3,4-d]pyridazin-5-yl)-N-(1-(p-tolyl)ethyl)acetamide]"
7,0.501 µM,"CC(C)n1nc(C2CC2)c2c(=O)n(CC(=O)N[C@@H](C)c3ccc(OC(F)(F)F)cc3)ncc21 [Example 96, (S)-2-(3-cyclopropyl-1-isopropyl-4-oxo-1,4-dihydro-5H-pyrazolo[3,4-d]pyridazin-5-yl)-N-(1-(4-(trifluoromethoxy)phenyl)ethyl)acetamide]"
8,0.363 µM,"Cc1nn(C(C)C)c2c(C)nn(CC(=O)N[C@@H](C)c3ccc(OC(F)(F)F)cc3)c(=O)c12 [Example 100, (S)-2-(1-isopropyl-3,7-dimethyl-4-oxo-1,4-dihydro-5H-pyrazolo[3,4-d]pyridazin-5-yl)-N-(1-(4-(trifluoromethoxy)phenyl)ethyl)acetamide]"
9,0.0832 µM,"CC(C)n1ncc2c(=O)n(CC(=O)N[C@@H](C)c3ccc(C(F)(F)F)cc3)ncc21 [Example 86, (S)-2-(1-isopropyl-4-oxo-1,4-dihydro-5H-pyrazolo[3,4-d]pyridazin-5-yl)-N-(1-(4-(trifluoromethyl)phenyl)ethyl)acetamide]"
10,0.049 µM,"Cc1ccc([C@H](C)NC(=O)Cn2ncc3c(c(C4CC4)nn3C(C)C)c2=O)cc1 [Example 97, (S)-2-(3-cyclopropyl-1-isopropyl-4-oxo-1,4-dihydro-5H-pyrazolo[3,4-d]pyridazin-5-yl)-N-(1-(p-tolyl)ethyl)acetamide]"
